According to patent publication US20240252651A1, “METHOD OF DELIVERING NUCLEIC ACIDS INTO CELLS” (GUANGZHOU LIDE BIOMEDICINE TECHNOLOGY CO., LTD., priority 2021, published 2024):
Entries after “also recorded” stand apart in the source; their conditions may differ.

How the values were obtained:
DC 2.4 cells = assay: Transfection of eGFP-mRNA in DC 2.4 cells (FCM and LSCM); type: cell-based, mouse; conditions: mRNA 0.2 μg/well, material 0.25 to 2 μg/well (dosages per FIG. 7), 24 h, FIG. 7-9
Procedure: In this experiment, with eGFP-mRNA as model mRNA, an mRNA transfection efficiency of a cationic lipid analog material in DC 2.4 cells was detected. A specific operation method was as follows:
DC 2.4 cells were inoculated in a 48-well plate and cultured in an incubator for 12 h; each of different cationic lipid analog materials (0.25 μg/well to 2 μg/well) was mixed with cGFP-expressing mRNA (0.2 μg/well) in 20 μL of a sodium acetate buffer (25 mM, pH 5.2), and resulting mixtures each were allowed to stand for 10 min and then diluted with 230 μL of a Opti-MEM medium to obtain mRNA-loaded complex particle solutions; a medium for the […] were washed once with PBS, and the complex particle solutions were added; and the cells were cultured for 24 h, an mRNA transfection efficiency in cells was observed by FCM and LSCM. A commercial gene transfection reagent Lipofectamine 2000 was adopted as a positive control.

Hela cells [1] = assay: Cytotoxicity by MTT experiment in Hela cells; type: cell-based, human; conditions: material 1 μg/ml, 4 h exposure then 20 h culture, FIG. 11
Procedure: In this experiment, I2R2C16A1, I2R2C17A1, I2R2C18A1, I2R2C19A1, and I2R2C20A1 with high transfection efficiencies were selected as representative cationic lipid analog materials, and the toxicity of cationic lipid analogs for Hela cells was detected by an MTT experiment. A specific experimental method was as follows: HeLa cells were inoculated in a 96-well plate and cultured in an incubator for 12 h, then a medium was removed, and a cationic lipid analog material was added at 1 μg/ml; the cells were cultured for 4 h, then the material was washed away and replaced with DMEM; and the cells were cultured for 20 h, and finally cell viability was detected by MTT.

Hela cells [2] = assay: Transfection of luciferase-expressing plasmid DNA in HeLa cells (luciferase expression); type: cell-based, human; conditions: plasmid DNA 0.5 μg, 24 h, luciferase expression level, FIG. 5
Procedure: In this example, with luciferase-expressing plasmid DNA as a reporter gene, a gene transfection efficiency of a cationic lipid analog material in HeLa cells was detected. A specific operation method was as follows: Hela cells were inoculated in a 96-well plate and cultured in an incubator for 12 h; each of different cationic lipid analog materials was mixed with luciferase-expressing plasmid DNA (0.5 μg) in 40 μL of a sodium acetate buffer (25 mM, pH 5.2), and resulting mixtures each were allowed to stand for 10 min and then diluted with 460 μL of an Opti-MEM medium to obtain plasmid DNA-loaded cationic lipid analog complex particle solutions; a medium for the Hela cells in the plate was removed, then the Hela cells were washed once with PBS, and the complex particle solutions were added in a volume of 125 μL; the cells were cultured for 24 h, then a resulting culture supernatant was discarded, and the cells were fully lysed; and a substrate was added at 50 μl/well, and an expression level of luciferase was detected by a multi-mode microplate reader.

Hela cells [3] = assay: Transfection of GFP-expressing plasmid DNA in Hela cells (flow cytometer); type: cell-based, human; conditions: plasmid DNA 0.5 μg/well, material 0.25 to 8 μg/well (dosages per FIG. 4), 24 h
Procedure: In this experiment, with GFP-expressing plasmid DNA as a reporter gene, a gene transfection efficiency of a cationic lipid analog material in Hela cells was detected. A specific method was as follows:
Hela cells were inoculated in a 24-well plate and cultured in an incubator for 12 h; each of different cationic lipid analog materials (0.25 μg/well to 8 μg/well) was mixed with GFP-expressing plasmid DNA (0.5 μg/well) in 40 μL of a sodium acetate buffer (25 mM, pH 5.2), and resulting mixtures each were allowed to stand for 10 min and then diluted with 460 μL of an Opti-MEM medium to obtain plasmid DNA-loaded cationic lipid analog complex particle solutions; a medium for the Hela cells in the plate was removed, then the HeLa cells were washed once with PBS, and the complex particle solutions were added; and the cells were cultured for 24 h, and then a plasmid DNA transfection efficiency in cells was analyzed by a flow cytometer. A commercial gene transfection reagent Lipofectamine 2000 was adopted as a positive control.

A549 cells (A549-Luc) = assay: siRNA transfection, luciferase gene silencing in A549-Luc cells; type: cell-based, human; conditions: final siRNA 100 nM, material 0.5 to 3 μg/well, 48 h, FIG. 10
Procedure: In this experiment, with I2R2C18-1A1, I2R3C18-1A1, I2R2C18-2A1, and I2R3C18-2A1 as representative cationic lipid analog materials, siRNA transfection and delivery effects of the cationic lipid analog materials were detected in A549 cells (A549-Luc). A specific operation method was as follows:
Luciferase-expressing A549 cells (A549-Luc) were inoculated in a 96-well plate and cultured in an incubator for 12 h; each of different materials (0.5 μg/well to 3 μg/well) was mixed with siRNA in 40 μL of a sodium acetate buffer (25 mM, pH 5.2), and resulting mixtures each were allowed to stand for 10 min and then diluted with 460 μL of an Opti-MEM medium to obtain siRNA-loaded complex particle solutions (final siRNA concentration was 100 nM); a medium for the A549-Luc cells in the plate was removed, then the A549-Luc cells were washed once with PBS, and the complex particle solutions each were added in a volume of 125 μL; the cells were cultured for 48 h, then a resulting culture supernatant was discarded, and the cells were fully lysed; and a substrate was added at 50 μl/well, and an expression level of luciferase was detected by a multi-mode microplate reader.

[4] = tested on: DC2.4, RAW 264.7, A549, BxPC3, and HeLa cells; assay: Transfection of GFP-expressing plasmid DNA in different types of cells (LSCM); type: cell-based, human, mouse; conditions: material 0.5 to 3 μg/well, plasmid DNA 0.5 μg/well, 24 h, FIG. 6
Procedure: In this experiment, with I2R3C18-1A1 as a representative cationic lipid analog material and GFP-expressing plasmid DNA as a reporter gene, transfection effects of the cationic lipid analog material at different dosages (0.5 μg/well to 3 μg/well) for plasmid DNA (0.5 μg/well) in different types of cells were investigated. A commercial gene transfection reagent Lipofectamine 2000 was adopted as a positive control. In this experiment, a GFP-expressing plasmid DNA-loaded I2R3C18-1A1 particle complex solution was prepared with reference to the method in Example 8 and added to DC2.4, RAW 264.7, A549, BxPC3, and HeLa cells respectively, these cells were cultured for 24 h, and then a transfection efficiency of plasmid DNA in cells was observed by LSCM.

Row | SMILES | mRNA transfection efficiency (eGFP-mRNA), compared with Lipofectamine 2000 (DC 2.4 cells) | cytotoxicity (cell viability by MTT) (Hela cells [1]) | transfection efficiency of luciferase-expressing plasmid DNA, compared with Lipofectamine 2000 (Hela cells [2]) | transfection efficiency of GFP-expressing plasmid DNA, compared with commercial transfection reagent Lipofectamine 2000 (Hela cells [3]) | gene silencing efficiency as a function of material dosage (A549 cells (A549-Luc)) | siRNA transfection, silencing of the luciferase reporter gene (A549 cells (A549-Luc)) | transfection of GFP-expressing plasmid DNA in different types of cells [4]
1 | CCCCCCCCCCCCCCCC(=O)N(CCCN(C)C)C(C(=O)NCCOCCOCCNC(=O)C(C(C)C)N(CCCN(C)C)C(=O)CCCCCCCCCCCCCCC)C(C)C (stereo not drawn) [I2R2C16A1] | high transfection efficiency; also recorded: equivalent to or higher than | low cytotoxicity | equivalent to or higher than | reaches or is higher than; also recorded: equivalent to or higher than |  |  | 
2 | CCCCCCCCCCCCCCCCCC(=O)N(CCCN(C)C)C(C(=O)NCCOCCOCCNC(=O)C(C(C)C)N(CCCN(C)C)C(=O)CCCCCCCCCCCCCCCCC)C(C)C (stereo not drawn) [I2R2C18A1] | high transfection efficiency; also recorded: equivalent to or higher than | low cytotoxicity |  |  |  |  | 
3 | CCCCCCCCCCCCCCCCCCCC(=O)N(CCCN(C)C)C(C(=O)NCCOCCOCCNC(=O)C(C(C)C)N(CCCN(C)C)C(=O)CCCCCCCCCCCCCCCCCCC)C(C)C (stereo not drawn) [I2R2C20A1] |  | low cytotoxicity |  |  |  |  | 
4 | CCCCCCCC/C=C\CCCCCCCC(=O)N(CCCN(CC)CC)C(C(=O)NCCOCCOCCNC(=O)C(C(C)C)N(CCCN(CC)CC)C(=O)CCCCCCC/C=C\CCCCCCCC)C(C)C (stereo not drawn) [I2R3C18-1A1] | high transfection efficiency; also recorded: equivalent to or higher than |  | equivalent to or higher than | reaches or is higher than; also recorded: equivalent to or higher than | increases with the increase of a dosage | efficient gene silencing; also recorded: can transfect siRNA into cells to specifically silence the expression of the luciferase reporter gene | can transfect GFP-expressing plasmid DNA into tumor cells and immune cells
5 | CCCCC/C=C\C/C=C\CCCCCCCC(=O)N(CCCN(CC)CC)C(C(=O)NCCOCCOCCNC(=O)C(C(C)C)N(CCCN(CC)CC)C(=O)CCCCCCC/C=C\C/C=C\CCCCC)C(C)C (stereo not drawn) [I2R3C18-2A1] | high transfection efficiency; also recorded: equivalent to or higher than |  | equivalent to or higher than | reaches or is higher than; also recorded: equivalent to or higher than | increases with the increase of a dosage | efficient gene silencing; also recorded: can transfect siRNA into cells to specifically silence the expression of the luciferase reporter gene | 
